In general, viability refers to a read-out of living cells in per cent, often relative to untreated cells.

The nature of the first series: in vitro. To be noted: human, hela cells, % viability.
In the case of `Cc1cc(O)c(C(=O)Nc2cccc(Cl)c2)c(=O)n1Cc1ccccn1` [CBK287729], the viability at 28.5 h, 10 µM was 99.3%.

On to `O=C(COc1cccc2c1CCNC2=O)Nc1ccccc1` [CBK287730], for which the viability at 28.5 h, 10 µM was determined as 89%. Regarding `Cc1ccc(NC(=O)N2CCn3cccc3C2c2cccnc2)cc1` (stereo not drawn) [CBK287733], the viability at 28.5 h, 10 µM came to 87.1%. Turning to `Cc1ccc(CNC(=O)CSc2nc(C)c(C)c(=O)[nH]2)cc1` [CBK287735], the viability at 28.5 h, 10 µM stood at 92.8%. `CCc1nc(C(N)=O)c2[nH]c(=O)n(-c3ccccc3F)c2n1` [CBK287739]: the viability at 28.5 h, 10 µM is 107%. For the compound `Cn1c(=O)c(C(=O)Nc2ccc(Cl)cc2)cc2cccnc21` [CBK287741], the viability at 28.5 h, 10 µM came out at 94.4%.

Regarding `COc1ccc(C(=O)Nc2nnc(-c3ccc(OC)c(OC)c3)o2)cc1OC` [CBK287745], the viability at 28.5 h, 10 µM was found to be 93.7%. On the same count and under the same terms, the result for `COc1cccc2c1OC(c1cccnc1)N1N=C(c3cccc(O)c3)CC21` (stereo not drawn) [CBK287747] reads 104%; that for `CCSc1ccnc2c1c(=O)n(C)c(=O)n2C` [CBK287749], 98.9%; that for `CC1CCc2c(sc(NC(=O)c3ccno3)c2C(N)=O)C1` (stereo not drawn) [CBK287752], 85.4%. The same measure, in the same setting: with `CC(=O)N1CCN(c2ncnc3c2nnn3-c2ccccc2)CC1` [CBK287753] the figure was 92.9%; with `O=C(c1ccco1)N(CCCn1ccnc1)c1nc2c(F)cccc2s1` [CBK287758], 86.4%; with `O=C(Cn1ncn2nc(-c3ccccc3)cc2c1=O)Nc1ccc(F)cc1` [CBK287759], 85.8%.

As for `Cc1ccc(N2C(=O)CC(Sc3ncccc3C(=O)O)C2=O)cc1` (stereo not drawn) [CBK287761], the viability at 28.5 h, 10 µM is 87.7%.

With `CCNC(=O)c1cc2c(=O)n3ccccc3nc2n(C)c1=N` [CBK287762], the viability at 28.5 h, 10 µM is 90.7%. The same measure, in the same setting: the result for `CCOc1ccc(-c2csc(NC(=O)CC)n2)cc1` [CBK287764] reads 92.5%. On the same count and under the same terms, with `Cc1ccc(-c2csc3ncnc(Cl)c23)cc1` [CBK287765] the figure was 74.7%. Still for that read-out and setting: the result for `COc1ccc2oc(-c3ccccc3)c(C(=O)Nc3nccs3)c2c1` [CBK287767] reads 71.8%; that for `O=C(CSc1nccn(-c2ccc(F)cc2)c1=O)Nc1ccc(F)cc1` [CBK287768], 91.2%; that for `COCCCNc1nc2c(-c3ccc(Cl)cc3)nnn2c2ccccc12` [CBK287770], 96.3%. `COc1ccc(CNC(=O)C2CCCN(c3cnc4ccccc4n3)C2)cc1` (stereo not drawn) [CBK287772]: the viability at 28.5 h, 10 µM came out at 112%. Same read-out and setting: the result for `COc1cc(-c2noc(-c3cc(-c4ccccc4)n[nH]3)n2)cc(OC)c1OC` [CBK287774] reads 92.3%; that for `Cc1nc2c(c(=O)c3ccccc3n2C)c(=O)n1Cc1ccco1` [CBK287776], 100%; that for `CCCCN1CC(=O)C(c2nc3ccccc3[nH]2)=C1N` [CBK287777], 93.7%.

Turning to `CN(C)CCCN1C(=O)C(O)=C(C(=O)c2ccccc2)C1c1ccccn1` (stereo not drawn) [CBK287778], the viability at 28.5 h, 10 µM stood at 110%. On the same count and under the same terms, the result for `Cc1cc(N2C(=O)c3oc4ccccc4c(=O)c3C2c2ccncc2)no1` (stereo not drawn) [CBK287780] reads 103%; that for `Cn1c(C2CC(=O)N(c3ccc(Cl)cc3)C2)nc2ccccc21` (stereo not drawn) [CBK287783], 87.1%. On the same count and under the same terms, with `CCCn1c(CN2CCOCC2)nc2ccccc21` [CBK287784] the figure was 99.1%; with `O=C(Nc1ccncc1)c1ccc(S(=O)(=O)N2CCCC2)cc1` [CBK287786], 106%; with `O=C(Nc1ccncc1)c1cc(-c2ccncc2)nc2ccccc12` [CBK287787], 100%. Consider `O=C(CSc1ncnc2c1oc1ccccc12)NC1CCCC1` [CBK287788], for which the viability at 28.5 h, 10 µM is 99.4%. As for `Cc1ccc(NC(=O)c2ccc(-n3nncc3C)cc2)cc1` [CBK287790], the viability at 28.5 h, 10 µM is 80.9%. On the same count and under the same terms, the result for `CCCCNc1cc(C)nc2c(-c3ccccc3)cnn12` [CBK287792] reads 92.1%. The same measure, in the same setting: with `CCN1CCN(c2cc(C)nc3c(-c4ccccc4)cnn23)CC1` [CBK287793] the figure was 88.4%; with `CCOc1cc(C)ccc1S(=O)(=O)n1nnc2ccccc21` [CBK287796], 97.3%.

On to `Cc1nc2c(-c3ccccc3)cnn2c(N2CCCC2)c1C` [CBK287799], for which the viability at 28.5 h, 10 µM is 89%. The same measure, in the same setting: with `O=C(c1ccncc1)N1CCc2cc(S(=O)(=O)N3CCOCC3)ccc21` [CBK287800] the figure was 92.8%; with `Cc1ccc2oc(C(=O)Nc3ccc(-n4cnnn4)cc3)c(C)c2c1` [CBK287804], 88.1%; with `CCCNc1cc(C)nc2cc(-c3ccc(OC)c(OC)c3)nn12` [CBK287805], 88.2%. In the case of `COc1ccc2ncc(C#N)c(Nc3ccc(OC)c(OC)c3)c2c1` [CBK287808], the viability at 28.5 h, 10 µM is 92.3%. Same read-out and setting: with `Cc1ccc(NC(=O)Cn2cnc3c(-c4ccccc4)csc3c2=O)cc1` [CBK287812] the figure was 104%. As to `COc1ccc(NC(=O)c2c[nH]c3nc(C)ccc3c2=O)cc1` [CBK287816], the viability at 28.5 h, 10 µM turned out to be 88.4%. Still for that read-out and setting: the result for `COc1ccc(NC(=O)CSc2cc(-n3cccn3)ncn2)cc1` [CBK287819] reads 116%. On to `Cc1ccc(NC(=O)CSc2cc(-n3nc(C)cc3C)ncn2)cc1` [CBK287820], for which the viability at 28.5 h, 10 µM was 89%.

In the case of `CCCCNC(=O)CCn1c(=O)[nH]c2ccccc2c1=O` [CBK287824], the viability at 28.5 h, 10 µM came out at 97%. On the same count and under the same terms, the result for `CCn1nnc2c(=O)n(CC(=O)Nc3ccccc3)cnc21` [CBK287828] reads 85.5%; that for `O=C(Nc1nnc(Cc2cccs2)o1)c1ccccc1` [CBK287831], 83.9%; that for `O=C(c1ccc(F)cc1)N1CCN(c2ccc(Nc3ccncc3)nn2)CC1` [CBK287836], 99.7%. Still for that read-out and setting: the result for `Cc1cc(=O)n2c(-c3ccc(NS(=O)(=O)c4cccnc4)cc3)csc2n1` [CBK287837] reads 91.6%; that for `CCCn1c(C(=O)Nc2cccnc2)cc2c(=O)n(C)c(=O)n(C)c21` [CBK287838], 90.8%.

On to `O=S(=O)(c1ccccc1)N1CCN(c2cnccn2)CC1` [CBK287839], for which the viability at 28.5 h, 10 µM was found to be 88.9%. Regarding `COc1ccc(NC(=O)c2csc(Nc3ccccc3)n2)cc1OC` [CBK287840], the viability at 28.5 h, 10 µM came to 83.7%. On the same count and under the same terms, with `Cc1cc(C)cc(NC(=O)Cc2cc(=O)[nH]c(SCc3ccccc3)n2)c1` [CBK287842] the figure was 112%. The same measure, in the same setting: with `Cc1nc(-c2nnc(NC(=O)COc3ccc(Cl)cc3Cl)o2)cs1` [CBK287843] the figure was 109%; with `Nc1nc2ccc(-c3nc4ccccc4o3)cc2s1` [CBK287846], 57.4%; with `CCN1C(=O)CC(n2c(C)nc3ccccc32)C1=O` (stereo not drawn) [CBK287847], 108%. The same measure, in the same setting: the result for `Cc1cccc(Nc2ncc(Cc3ccccc3C)s2)n1` [CBK287849] reads 94.8%; that for `O=C(O)c1cnc2ccc(F)cc2c1N1CCOCC1` [CBK287851], 82.5%. Regarding `Cc1ccccc1NC(=O)Cn1c(=O)cnc2ccccc21` [CBK287852], the viability at 28.5 h, 10 µM came to 100%.

For `O=c1sc(Nc2ccccc2)nc2ccsc12` [CBK287853], the viability at 28.5 h, 10 µM stood at 91.9%. On the same count and under the same terms, the result for `CCc1ccc(Oc2cc(N3CCC(C(=O)NC4CC4)CC3)ncn2)cc1` [CBK287854] reads 102%; that for `CC(=O)c1cnc2nc(-c3cccnc3)nn2c1C` [CBK287859], 112%; that for `CCCCCOc1ccc(C2NC(=O)NC2=O)cc1` (stereo not drawn) [CBK287865], 89%. Regarding `O=C(CCC1CCCCC1)Nc1c[nH]c(=O)[nH]c1=O` [CBK287867], the viability at 28.5 h, 10 µM was 90.4%.

With `c1ccc(-c2onc3cc4c(cc23)OCCO4)cc1` [CBK287869], the viability at 28.5 h, 10 µM is 82.8%. Regarding `O=C1CCCc2nccc(-c3ccc(Cl)cc3)c21` [CBK287870], the viability at 28.5 h, 10 µM worked out at 82.9%. The same measure, in the same setting: with `CC(=O)c1c(C)c2c(=O)n3c(nc2[nH]c1=O)CCC3` [CBK287872] the figure was 93.6%; with `O=C1N=C2C=CC=CN2C(=O)C1Cc1ccccc1` (stereo not drawn) [CBK287874], 110%. For the compound `CCCCc1c(O)[nH]c2nc3ccccc3n2c1=O` [CBK287875], the viability at 28.5 h, 10 µM amounted to 98.1%. On the same count and under the same terms, the result for `COc1ccc2c(c1)Cc1sc(NC(C)=O)nc1-2` [CBK287876] reads 93.8%; that for `COc1ccc(CNC(=O)c2nc(-c3ccccn3)no2)cc1` [CBK287877], 90.3%.

In the case of `COc1ccc(Nc2nccc3c2nnn3C)cc1` [CBK287879], the viability at 28.5 h, 10 µM came to 80.9%. The same measure, in the same setting: the result for `N#Cc1c(N)nc2c(c1-c1cccnc1)CCCC2` [CBK287885] reads 85.8%; that for `c1ccc2c(c1)CCCN2c1ncnc2n[nH]cc12` [CBK287886], 69.3%. `Cn1c(=O)n(C)c2cc(-c3nc4ccccc4c(=O)[nH]3)ccc21` [CBK287887]: the viability at 28.5 h, 10 µM stood at 98.5%.

Turning to `CCc1nnc2ccc(NCc3ccccc3)nn12` [CBK287888], the viability at 28.5 h, 10 µM was determined as 110%. Same read-out and setting: with `COc1cccc(C2CC(=O)Nc3n[nH]cc32)c1OC` (stereo not drawn) [CBK287889] the figure was 88.1%. For `COc1ccc(/N=c2/cc(C)[nH]c3ncnn23)cc1` [CBK287893], the viability at 28.5 h, 10 µM stood at 91.1%. On to `CC(C)(C)C1=Nn2c(nnc2-c2n[nH]c3c2CCC3)SC1` [CBK287894], for which the viability at 28.5 h, 10 µM turned out to be 87.7%.

In the case of `Cc1ccc(Nc2nc3c(c(=O)[nH]2)CCCC3)cc1` [CBK287895], the viability at 28.5 h, 10 µM came to 100%.

Turning to `Cc1nn(-c2ccc3nnc(C)n3n2)c2c1C(c1ccccc1F)CC(=O)N2` (stereo not drawn) [CBK287898], the viability at 28.5 h, 10 µM stood at 83.3%. On to `O=C1N(c2ccc(Cl)cc2)Cc2nc(=O)[nH]n21` [CBK287899], for which the viability at 28.5 h, 10 µM is 91.6%.

Consider `O=C(Nc1ccccc1)c1ccc(F)cc1-n1cnnn1` [CBK287903], for which the viability at 28.5 h, 10 µM was 111%.

The same series, now with this note: human, hela cells, % viability, bulk resorufin, single well.
On to `CCC(=O)c1c(O)n(-c2ccccc2)c(=O)[nH]c1=O` [CBK287862], for which the viability at 28.5 h, 10 µM amounted to 96.8%.

Source of the values: paper PMC12040169 (PLOS Biology, 2025).
